The results in this text go back to article PMC3502418 (2012).

In assay [1] the test system is DNA1-A (DNA, mismatch bulge abasic, abasic site (dSpacer, tetrahydrofuran residue) at X, opposite A, flanked by T; position in Figure 1B) ATGGTGTNTGCAGCG/CGCTGCAAACACCAT
Put plainly: UV melting at 260 nm. Conditions: 0.1 M phosphate, 1 mM EDTA, pH 8.3 or 7.0 (unclear); 5 µM SG, 5 µM DNA.

Assay [2] concerns DNA1-G (DNA, mismatch bulge abasic, abasic site (dSpacer, tetrahydrofuran residue) at X, opposite G, flanked by T; position in Figure 1B) ATGGTGTNTGCAGCG/CGCTGCAGACACCAT
Put plainly: UV melting at 260 nm. Conditions: 0.1 M phosphate, 1 mM EDTA, pH 8.3 or 7.0 (unclear); 5 µM SG, 5 µM DNA.

For assay [3], the system named is DNA1-T (DNA, mismatch bulge abasic, abasic site (dSpacer, tetrahydrofuran residue) at X, opposite T, flanked by T; position in Figure 1B) ATGGTGTNTGCAGCG/CGCTGCATACACCAT
Put plainly: UV melting at 260 nm. Conditions: 0.1 M phosphate, 1 mM EDTA, pH 8.3 or 7.0 (unclear); 5 µM SG, 5 µM DNA.

In assay [4] the test system is DNA2-C (DNA, mismatch bulge abasic, abasic site (dSpacer, tetrahydrofuran residue) at X, opposite C, flanked by A; position in Figure 1B) ATGGTGANAGCAGCG/CGCTGCTCTCACCAT
Put plainly: UV melting at 260 nm. Conditions: 0.1 M phosphate, 1 mM EDTA, pH 8.3 or 7.0 (unclear); 5 µM SG, 5 µM DNA.

Assay [5] concerns DNA2-A (DNA, mismatch bulge abasic, abasic site (dSpacer, tetrahydrofuran residue) at X, opposite A, flanked by A; position in Figure 1B) ATGGTGANAGCAGCG/CGCTGCTATCACCAT
Put plainly: UV melting at 260 nm. Conditions: 0.1 M phosphate, 1 mM EDTA, pH 8.3 or 7.0 (unclear); 5 µM SG, 5 µM DNA.

For assay [6], the system named is DNA3-T (DNA, mismatch bulge abasic, abasic site (dSpacer, tetrahydrofuran residue) at X, opposite T, flanked by G; position in Figure 1B) ATGGTGGNGGCAGCG/CGCTGCCTCCACCAT
Put plainly: UV melting at 260 nm. Conditions: 0.1 M phosphate, 1 mM EDTA, pH 8.3 or 7.0 (unclear); 5 µM SG, 5 µM DNA.

For assay [7], the system named is DNA3-G (DNA, mismatch bulge abasic, abasic site (dSpacer, tetrahydrofuran residue) at X, opposite G, flanked by G; position in Figure 1B) ATGGTGGNGGCAGCG/CGCTGCCGCCACCAT
Put plainly: UV melting at 260 nm. Conditions: 0.1 M phosphate, 1 mM EDTA, pH 8.3 or 7.0 (unclear); 5 µM SG, 5 µM DNA.

Assay [8] relates to DNA4-C (DNA, mismatch bulge abasic, abasic site (dSpacer, tetrahydrofuran residue) at X, opposite C, flanked by C; position in Figure 1B) ATGGTGCNCGCAGCG/CGCTGCGCGCACCAT
Put plainly: UV melting at 260 nm. Conditions: 0.1 M phosphate, 1 mM EDTA, pH 8.3 or 7.0 (unclear); 5 µM SG, 5 µM DNA.

In assay [9] the test system is DNA4-G (DNA, mismatch bulge abasic, abasic site (dSpacer, tetrahydrofuran residue) at X, opposite G, flanked by C; position in Figure 1B) ATGGTGCNCGCAGCG/CGCTGCGGGCACCAT
Put plainly: UV melting at 260 nm. Conditions: 0.1 M phosphate, 1 mM EDTA, pH 8.3 or 7.0 (unclear); 5 µM SG, 5 µM DNA.

Assay [10] concerns mismatched DNA (DNA1, X = T, Y = C) (DNA, mismatch bulge abasic) ATGGTGTTTGCAGCG/CGCTGCACACACCAT
Put plainly: fluorescence enhancement at 586 nm. Conditions: 0.1 M phosphate, pH 8.3 presumed; 5 µM SG; up to 5 µM DNA; weaker than DNA1-C.

Assay [11] has as its system DNA1-C (DNA, mismatch bulge abasic, abasic site (dSpacer, tetrahydrofuran residue) at X, opposite C, flanked by T; position in Figure 1B) ATGGTGTNTGCAGCG/CGCTGCACACACCAT
Put plainly: fluorescence titration (586 nm), Scatchard. Conditions: 0.1 M phosphate, 1 mM EDTA; pH 8.3 presumed; 1 µM SG; strongest site only.

Regarding `C[n+]1cc2c3c(ccc2c2ccc4cc5c(cc4c21)OCO5)OCO3`, the ΔT in assay [1] stood at 1.9 °C; in assay [2], 1.9 °C; in assay [3] it was 3.8 °C; in [4] it was 5.4 °C; in assay [5], 3.0 °C; in assay [6] it was 5.7 °C. In addition, the ΔT was found to be 2.4 °C in assay [7], 5.2 °C in [8] and 2.4 °C in assay [9]. Besides, the binding entry in assay [10] is reported as “yes”. For the same compound, the binding constant in assay [11] is 1.7±0.15×10^7 M^−1.
